We go through six compounds from US20230406873A1, “PROBES, SYSTEMS, AND METHODS FOR MAGNETIC RESONANCE PH SENSING” (The General Hospital Corporation, priority 2020, published 2023).

Like-named read-outs stand apart in the source and are kept apart here. Marks after values point to notes of the source that are not given here.

Data set [1] can be described thus: pH-potentiometry of 1:1 ligand and Fe3+ solution (complex protonation constants, speciation). To be noted: Fe^3+ complex, 0.1 M NaCl, 310 K; for log KML/ML(OH): 7.0 mM each Fe and ligand, [ML]/[ML(OH)][H], not an absolute protonation constant; for log KHML: KHML = [HML]/[H][ML]; for log KML: footnote d only: pH-potentiometry. In kind it is physicochemical. On the procedure: (§1) pH-potentiometric measurements: pH-potentiometric measurements were performed using an Orion ROSS Ultra pH electrode and temperature-controlled reaction vessel held at 310 K. A standardized solution of 0.10 M NaOH was used as the titrant. The electrode was calibrated prior to each titration by titrating a standardized HCl(aq) solution at ionic strength 0.10 using NaCl as the inert electrolyte with the standardized NaOH titrant. A working slope and intercept were generated by plotting mV as a function of calculated pH, which enabled direct conversion of electrode readings to [H^+] during sample titrations. pH values recorded during the titrations refers to hydrogen ion concentration. All titration samples were prepared in solutions of 0.10 M NaCl in distilled, de-ionized water. Ligand solutions were prepared by dissolving a weighed quantity into the electrolyte and concentration was calculated from the effective weight of the ligand. Moles ligand present in titrand was also confirmed by measuring the mol added NaOH required to span each inflection point. Solutions of 1:1 ligand: Fe were prepared by adding an appropriate volume of standardized FeCl3 in 0.088 M HCl solution to a weighed quantity of ligand, the solutions were then adjusted with water and 1 M NaCl to ionic strength 0.10. The data was analyzed using the Hyperquad2013 software package.

A short description of data set [2]: Dimerization constant from concentration dependence on extinction coefficient at 342 nm (UV-vis). The class given is physicochemical. Conditions: Fe^3+ complex, pH 9.0, 310 K. On the procedure:
UV-vis spectra were recorded on a SpectraMax M2 spectrophotometer using quartz cuvettes with a 1 cm path length. Extinction coefficients recorded at pH 9 (ε, M^−1cm^−1) were estimated by dividing absorbance by sample Fe concentration.

Data set [3] can be described thus: Dimerization constant from concentration dependence on relaxivity at pH 9.0. Conditions: Fe^3+ complex, pH 9.0, 310 K. In kind it is physicochemical. The source says: (§2) The dissociation constant for (ML)2O formation was estimated from the concentration dependence on r1 at pH 9.0, under these experimental conditions, complexes speciation is comprised near entirely by ML(OH) and the corresponding (ML)2O dimer and r1 can be expressed as Eq 7A, […]
r1=r1^monαmon+r1^dimαdim (Eq 7A) where r1^mon and r1^dim are the r1 corresponding to ML(OH) and (ML)2O and αmon and αdim are the fraction of total [Fe] comprised by each.
The concentration dependence on monomer vs. dimer speciation is governed by the equilibrium constant (Kd) in Eq 7B, Eq 7B can be rearranged to the corresponding quadratic equation, Eq 7C, and concentration of dimer solved by Eq 7D, Thus, the concentration dependence on ri was fit to a 3 parameter fit based on Eqs 7A-7D, yielding estimates of r1^mon, r1^dim, and Kd.

A short description of data set [4]: pH-potentiometry of ligand (protonation constants). In kind it is physicochemical. To be noted: 0.1 M NaCl, 310 K; for log KLH: KLHn = [HnL]/[H][Hn-1L]. As to the method: as §1
Data set [5] is described as follows: Estimation of log K (formation constant) from EDTA competition assay, HPLC. In kind it is physicochemical. To be noted: Fe^3+ complex; estimated from Kcomp using EDTA challenge; KML = [ML]/[M][L]. An excerpt:
The [Fe(PyCy2AI)]^+ formation constant was estimated from direct competition with EDTA at pH 4.4, I=0.1 M KNO3, and 310 K. Product distribution at equilibrium was estimated from an HPLC analysis of the reaction mixture (HPLC method A1). The equilibrium concentrations of [Fe(PyCy2AI)]^+ were quantified according to a linear calibration plot of HPLC peak area as a function of chelate concentration. An equilibrium constant, Keq, was estimated using Eq 4A,
The conditional (pH 4.4) formation constant, Kcond, was estimated from Keq and the previously (Kcond of Fe-EDTA measured under identical conditions using Eq 4B,
Under HPLC experimental conditions that cannot distinguish between chemical forms of the complex, the conditional stability constant can be estimated from the concentration coefficient of the ligand “L”, or PyCy2AI^2−, species (αL), which is known from the ligand pH-titration data. The formation constant was thus estimated using Eq 4C,
The HPLC assay conditions were chosen specifically to minimize contributions from ‘side products’ such as [Fe(HPyCy2AI)]^2+, [Fe(PyC2AI)(OH)], or [Fe(HEDTA)], which together we estimate to contribute <5% and <2% of total PyCy2AI and EDTA speciation.

The conditions of data set [6]: Fe^3+ complexes of reference ligands; method and conditions not given; cited from earlier work.
The nature of data set [7]: Relaxivity measurements (r1) of Fe-PyCy2AI species. In kind it is physicochemical. Conditions: Fe^3+ complex; estimated from pH dependence on r1. On the procedure:
Relaxivity measurements were performed on a Bruker mq60 Minispec, 1.41 T, and on an 11.7 T Varian NMR spectrometer at 37° C. Longitudinal (T1) relaxation times were measured via an inversion recovery experiment using 10 inversion times of duration ranging between 0.05 s T1 and 5 s T1. Transverse (T2) relaxation times were measured using a Carl-Purcell-Meiboom-Gill spin-echo experiment. Under experimental conditions where 1/T1,2 increased linearly with increasing [Fe], relaxivity (r2i=1,2) was determined from the slope of a plot of 1/Ti(i=1,2) vs. [Fe] for at least 4 concentrations. Under conditions where non-negligible dimerization occurs, plots of 1/T1,2 vs. [Fe] are non-linear and r1,2 were estimated by dividing the Fe induced increase in 1/T1,2 by [Fe]. […]
as §2
Magnetic resonance imaging was performed using a Bruker Biospec 4.7 T system. […] T1 values for each compound was determined using a 2D rapid acquisition refocused echo (RARE) sequence of flip angle (FA)=90°, echo time (TE)=20 ms, repetition time (TR) ranging from 146-7500 ms, acquisition matrix=256×128, field of view=64×32 mm, slice thickness 1 mm. […]

As for `O=C(O)CN(Cc1c[nH]cn1)C1CCCC[C@@H]1N(CC(=O)O)Cc1ccccn1` (mixture of isomers) [PyCy2AI, (±)-trans-N-((1H-imidazol-4-yl)methyl)-N′-(picolyl)-N,N′-cyclohexane-1,2-diamine diacetate bis-trifluoroacetic acid], in data set [1], the “log KML/ML(OH)” value is listed as 6.46 ± 0.03. For the same compound, the “log KHML” value in data set [1] (7.0 mM ligand and Fe^3+) came to 2.91 ± 0.05. The “log KMLH-1/MLH-2” value in data set [1] (7.0 mM ligand and Fe^3+, [MLH-1]/[MLH-2][H]) amounted to 10.24 ± 0.05. The “Dimerization Ka” value in data set [2] came to 6.2 ± 1.5 mM⁻¹; in data set [3] (1.4 T) it was 2.3 ± 0.57 mM⁻¹; in data set [3] (4.7 T) it was 5.1 ± 2.7 mM⁻¹; in data set [3] (11.7 T) it was 7.4 ± 5.5 mM⁻¹. In data set [4], the “log KLH2” value is on record as 6.44 ± 0.03. For the same compound, in data set [4], the “log KLH3” value is 4.23 ± 0.033. Moreover, the “log KLH4” value in data set [4] is on record as 2.27 ± 0.05. For the same compound, the “log KLH” value in data set [4] turned out to be 10.62 ± 0.04. Moreover, in data set [5], the “log KML” value is 23.9 ± 0.03^c.
As to `O=C(O)CN(CC(=O)O)C1CCCCC1N(CC(=O)O)CC(=O)O` (stereo not shown) [CyDTA, 1,2-Cyclohexylenedinitrilotetraacetic acid], the “log KML/ML(OH)” value in data set [1] is listed as 9.57. Further, the “log KML” value in data set [1] (7.0 mM ligand and Fe^3+) worked out at 29.1. In data set [4], the “log KLH2” value turned out to be 6.12, the “log KLH3” value worked out at 3.49, the “log KLH4” value is 2.40 and the “log KLH” value was found to be 12.3. Besides, in data set [6], the “Dimerization Ka” value is 0.012 mM⁻¹.
As to `O=C(O)CN(CCN(CC(=O)O)CC(=O)O)CC(=O)O` [EDTA, Ethylenediaminetetraacetic acid], the “log KML/ML(OH)” value in data set [1] turned out to be 7.37. In data set [1] (7.0 mM ligand and Fe^3+), the “log KHML” value turned out to be 1.3 and the “log KML” value worked out at 25.1. Further, in data set [4], the “log KLH2” value was determined as 6.13, the “log KLH3” value is recorded as 2.69, the “log KLH4” value turned out to be 2.00 and the “log KLH” value is reported as 10.19. In addition, the “Dimerization Ka” value in data set [6] is 0.44 mM⁻¹.
Regarding `O=C(O)CN(CCO)CCN(CC(=O)O)CC(=O)O` [HEDTA, Hydroxyethylethylenediaminetriacetic acid], the “Dimerization Ka” value in data set [6] is 0.24 mM⁻¹.
On to `CC(CN(CC(=O)O)CC(=O)O)N(CC(=O)O)CC(=O)O` (stereo not shown) [PDTA, N,N,N′,N′-1,2-propylenediaminetetracetic acid], for which, in data set [6], the “Dimerization Ka” value is 0.19 mM⁻¹.
For `O=C(O)CN(CC(=O)O)[C@H]1CCCC[C@@H]1N(CC(=O)O)Cc1ccccn1` [PyC3A], the “log KML/ML(OH)” value in data set [7] was 8.50^g. Also, in data set [4], the “log KLH2” value is reported as 6.39, the “log KLH3” value turned out to be 3.13 and the “log KLH” value was 10.16. Besides, in data set [5], the “log KML” value was 26.0^c.
